Experiments:
GDF15 [1] = test: Basal GDF15 gene expression in 21 lung and colorectal cancer cell lines treated with BI 894999 (RNA sequencing, qPCR); format: cell-based, human; details: of 21 treated lung and colorectal cancer cell lines; 10, 35 or 100 nM, 4 h or 24 h
Description: (§1) GDF15 overexpression can be both chemotherapy- and cancer-driven. Various cancer cell types were reported to overexpress GDF15, thereby exacerbating the development of cachexia. Whilst a personalized selection of chemotherapeutic agents has the potential to mitigate chemotherapy-driven GDF15 overexpression in cancer cells, it leaves basal overexpression of GDF15 unaffected. […] To test this further, we analyzed our own gene expression data of 21 lung and colorectal cancer cell lines treated with the BET inhibitor BI 894999[26]. […] Additionally, we analyzed fold-changes of GDF11 which is well known for its rejuvenating effect but also associated with cachexia, partially through upregulation of GDF15[19]. […] The more GDF15 expression was reduced, the more GDF11 expression tended to get increased upon BET inhibition in the respective cell lines (Fig. 5A).
(§2) Figure 5 GDF15 gene suppression by BET inhibitors. Effect of BET inhibition on basal GDF15 and GDF11 expression in 21 cancer cell lines and on doxorubicin-induced GDF15 overexpression in hiPSC-CMs. (A) Treatment of cancer cell lines with the BET Inhibitor BI 894999 (Supplementary Table S3). Fold-change of relative gene expression. Normalized gene expression analysis performed using RNA sequencing and qPCR, 95% confidence interval. […]

GDF11 = GDF11 gene expression in 21 lung and colorectal cancer cell lines treated with BI 894999; format: cell-based, human; details: of 21 treated cell lines; 10, 35 or 100 nM, 4 h or 24 h
Description: as §1, §2

GDF15 [2] = test: Doxorubicin-induced GDF15 mRNA expression in hiPSC-CMs, successive treatment with BET inhibitors (qPCR); format: cell-based, human; details: BET inhibitor given subsequently to doxorubicin
Description: (§3) Host cells are known to contribute to elevated GDF15 levels in cachexia patients when exposed to drug toxicity. […] We plotted GDF15 fold-changes against the respective reported half maximal inhibitory concentrations (IC50) of each BET inhibitor for BRD2, BRD3 and BRD4, whenever available. GDF15 fold-change thereby meant the ratio of GDF15 expression induced by doxorubicin only and doxorubicin combined with BET inhibitor normalized to cell viability.
(§4) Cardiotoxic drug (SCREEN-WELL® Cardiotoxicity library, BML-2850, ENZO) library was prepared by serial dilution of 10 mM stocks in DMSO to 9 different concentrations ranging from 0.001 to 10 mM, which were further diluted into assay plates to final concentrations ranging from 0.001 to 10 µM. […] The final concentration of DMSO for hiPSC-CMs assay was 0.1%. To investigate the influence of BET inhibitor treatment on doxorubicin induced GDF15 mRNA expression, hiPSC-CMs were pre-treated with 20 nM or 200 nM doxorubicin for 48 h and kept in medium without compound for 24 h before 24 h treatment with either 100 nM BI 894999 or 500 nM OTX015. […] Cancer cell lines were treated with 10 nM, 35 nM or 100 nM of BI 894999 for 4 h or 24 h (Supplementary Table S3).
(§5) For GDF15 mRNA quantification, total RNA was isolated from the cells using an RNeasy kit (Qiagen, 74106) to synthesize cDNA using a Taqman Reverse Transcription kit (Applied Biosystems, N8080234). Quantitative real-time PCR analysis was performed using QuantiNova SYBR Green PCR Kit (Qiagen, 208052) on a CFX96 Real-Time System (Bio-Rad) under the following amplification conditions: 95 °C for 2 min followed by 40 cycles of 95 °C for 5 s and 60 °C for 10 s. The primer sequences are GDF15-F: 5′-[…]-3′, GDF15-R: 5′-[…]-3′, ACTB-F: 5′-[…]-3′ and ACTB-R: 5′-[…]-3′. PCR data were analyzed using a modified relative expression software tool (REST) and the expression level of GDF15 gene was normalized to that of β-actin.

BRD4 = test: ChIP-seq of BRD4 bound to putative enhancers near the GDF15 gene locus in AML cell lines; format: cell-based; details: 1 to 1000 nM, reanalysis of previously published ChIP-seq data ref 26
Description: In 50% of NCI-60, we thereby found a correlation between drug-induced GDF15 and BRD4 expression. […]

GDF15 [3] = test: Doxorubicin-induced GDF15 secretion in hiPSC-CMs, simultaneous treatment with BET inhibitors (ELISA); format: cell-based, human; details: simultaneous 100 nM doxorubicin and 0.1 to 1000 nM BET inhibitor, 48 h
Description: as §3, §4
as §5, with “β-actin. For secreted GDF15 protein quantification, cell culture medium was collected after drug treatment and stored at − 20 °C until ELISA was performed using Human GDF-15 ELISA Kit (Abcam, ab155432) according to the manufacturer’s instruction. Resulting GDF15 concentrations were normalized to non-treated control and respective relative cell viability.” for “β-actin.”
Supplementary Figure S6. (A) Fold-change of GDF15 secretion by hiPSC-CMs after simultaneous
treatment with doxorubicin and seven BET Inhibitors for 48 h. Normalized to cell viability and non-treated […]

cancer-driven cachexia = test system: cancer-driven cachexia; set-up: method as in PMID 29167426; details: mice; cited from earlier work

Structure (SMILES)	number of cell lines with significantly reduced GDF15 expression (GDF15 [1])	number of cell lines with increased GDF11 expression (GDF11)	effect on doxorubicin-induced GDF15 overexpression (mRNA) (GDF15 [2])	BRD4 bound to putative enhancers in close vicinity to the GDF15 gene locus (BRD4)	effect on doxorubicin-induced GDF15 overexpression (secretion) (GDF15 [3])	effect on cancer-driven cachexia (cancer-driven cachexia)
CNc1nc(-c2nc3ccc(N4CCN(C)CC4)cc3n2Cc2ccccc2)cn2c(C)nnc12 [BI 894999]	9	19	suppressed	reduction of BRD4 bound to putative enhancers		
Cc1sc2c(c1C)C(c1ccc(Cl)cc1)=N[C@@H](CC(=O)OC(C)(C)C)c1nnc(C)n1-2 [JQ1]					suppressed	counteract cancer-driven cachexia
